Measured values: article PMC5918173, “Characterization of Transglutaminase 2 activity inhibitors in monocytes in vitro and their effect in a mouse model for multiple sclerosis” (PLoS ONE, 2018)

System: inflammatory mediator mRNA in spinal cord
Assay: qPCR of inflammation-related genes in spinal cord of EAE mice
Type: in vivo, mouse
Details: normalized to GAPDH
Procedure: Total RNA from snap frozen spinal cord (pooled cervical, thoracic and lumbar region) was isolated using Trizol (Invitrogen) according to the manufacturer’s protocol. RNA concentration and purity was determined with a NanoDrop 2000 spectrophotometer (Thermo Fisher Scientific). Purity was accepted with a 260/230 nm absorbance ratio of 2.00–2.20 and a 260/280 ratio of 1.90.-2.00. For reverse transcription into cDNA, 1 μg of RNA was used with the High-Capacity cDNA Reverse Transcription kit (Life Technologies), using 50 pmol oligo-dT16 primers, according to the manufacturer’s instructions. For quantitative real-time PCR (qPCR), Power SYBR Green Master Mix (Applied Biosystems) was used according to manufacturer’s protocol. Intron-spanning primers (Table 2) were designed with Primer-BLAST [29], purchased from Eurogentec and used at 3.75 pmol per 12.5 ng cDNA in each reaction. Subsequently, qPCR was performed according to the previously published MIQE guidelines. The qPCR reaction was performed in a total volume of 20 μl in MicroAmp Optical 96-well Reaction Plates on a StepOnePlus Real-Time PCR system (Applied Biosystems). The thermal cycling conditions were an initial 10 min at 95°C followed by 50 cycles of 15 s at 95°C and 1 min at 60°C. The reaction specificity was verified by a melt curve analysis. The relative expression level of the target genes was determined by the LinRegPCR software (http://www.hfrc.nl, downloads, applications, lin reg PCR, version 2017) using the following calculation N0 = Nq/ECq (N0 = target quantity, Nq = fluorescence threshold value, E = mean PCR efficiency per amplicon, Cq = threshold cycle. The obtained values were normalized to glyceraldehyde-3-phosphate-dehydrogenase expression (GAPDH).

## O=C(NCC1CC(Br)=NO1)C1CCCN1C(=O)OCc1cnc2ccccc2c1 (centres unmarked) [ERW1041E, 2-[(3-Bromo-4,5-dihydro-isoxazol-5-ylmethyl)-carbamoyl]-pyrrolidine-1—carboxylic acid quinolin-3-ylmethyl ester]
Fig 7a
  IL-1ra mRNA level in spinal cord versus vehicle: not significantly changed
Fig 7b
  IL-1β mRNA level in spinal cord versus vehicle: not significantly changed
Fig 7c
  IFNγ mRNA level in spinal cord versus vehicle: not significantly changed
Fig 7e
  iNOS mRNA level in spinal cord versus vehicle: slightly but not significantly enhanced
Fig 7d
  TNFα mRNA level in spinal cord versus vehicle: slightly but not significantly enhanced
